Patent US20250281462A1, “THERAPEUTICALLY EFFECTIVE ORAL ADMINISTRATION OF A 2 ARYLBENZIMIDAZOLE” (Tranquis Therapeutics, Inc., priority 2021, published 2025)
“And” between values parts separate entries of the source, which are not always exact repeats. Identical values can stand only once. Like-named read-outs stand apart in the source and are kept apart here.

Tests used:
[1] = Phase 1 single ascending dose (SAD) trial, plasma pharmacokinetics (Part 1); details: male, human, in vivo, po, fasted, single dose; for AUC(0-t) / AUC(0-inf) / Cmax / Tmax: human plasma; for half-life: T1/2, human plasma; for Tmax: median
TNF-α = experiment: LPS-induced TNF-α production by primary human myeloid cells (PBMC, CBA); format: cell-based; details: 100 ng/mL LPS, 24 hours
Procedure: Peripheral blood mononuclear cells (PBMC) from 4 different healthy volunteers were used in this study. Fresh blood samples were collected at Stanford Blood Center and processed for PBMC isolation with Ficoll gradient. PBMC samples were stored in liquid nitrogen at […] for subsequent analysis of TNF-α production. For TNF-α stimulation, frozen PBMC samples were thawed and rested at 37° C. before cells were stimulated with 100 ng/ml of LPS for 24 hours. DMSO (1:1000 final dilution) or TQS-168 in DMSO (1:1000 final dilution) at various concentrations was added to cell cultures of LPS-stimulated PBMC to evaluate the effects of T-168 on TNF-α production by human primary myeloid cells. After 24 hours stimulation, supernatant samples from various conditions were collected and TNF-α concentrations in the supernatants analyzed with cytometric bead array (CBA) assay per protocols from BD Biosciences. TNF-α was quantified by median fluorescent intensity reading (MFI). Samples were analyzed directly after staining with LSRII flow cytometer.

[2] = Tissue concentrations (plasma, brain, liver) after single oral dose 25 mg/kg in mice; format: in vivo
Procedure: In a first experiment, a total of 3-4 male C57BL6/J mice were administered a single dose of TQS-168 by oral gavage at 25 mg/kg. TQS-168 was prepared for oral gavage as a suspension with 0.5% methylcellulose in PBS.
Tissues were collected at various time points after dosing and processed for LC-MS analyses of TQS-168 concentrations. The tissues analyzed include plasma, brain, and liver. Animals were perfused thoroughly with 20 mL ice cold PBS before brain and liver collection to remove contaminating blood. Data are shown in Table 1 (TQS-168 concentrations in ng/mL).

[3] = 270 mg, Regimen H: 270 mg TQS-168 SDD oral suspension, geometric mean
[4] = 270 mg, Regimen H: 270 mg TQS-168 SDD oral suspension
[5] = 540 mg, Regimen C: 540 mg TQS-168 MC oral suspension, geometric mean
[6] = 540 mg, Regimen C: 540 mg TQS-168 MC oral suspension
[7] = 25 mg/kg p.o., 0.0 minutes, individual animal, 25 mg/kg
[8] = 25 mg/kg p.o., 15.0 minutes, individual animal, 25 mg/kg
[9] = 25 mg/kg p.o., 60.0 minutes, individual animal, 25 mg/kg
[10] = 25 mg/kg p.o., 120.0 minutes, individual animal, 25 mg/kg
[11] = 25 mg/kg p.o., 240.0 minutes, individual animal, 25 mg/kg
[12] = 25 mg/kg p.o., 480.0 minutes, individual animal, 25 mg/kg
[13] = 25 mg/kg p.o., 1440.0 minutes, individual animal, 25 mg/kg
[14] = 25 mg/kg p.o., 2880.0 minutes, individual animal, 25 mg/kg

CC(C)(C)c1ccc(-c2nc3ccccc3[nH]2)cc1 [TQS-168, 2-(4-tert-butylphenyl)-1H-benzimidazole]
AUC(0-t) ([1]; 270 mg, AUC(0-24), Regimen H: 270 mg TQS-168 SDD oral suspension, geometric mean): 736 ng·h/mL
AUC(0-inf) [1, 3]: 836 ng·h/mL
AUC(0-t) ([1]; 270 mg, AUC(0-last), Regimen H: 270 mg TQS-168 SDD oral suspension, geometric mean): 801 ng·h/mL
Cmax [1, 4]: 950 nM
Cmax [1, 3]: 237 ng/mL
half-life [1, 3]: 10.4 h
Tmax [1, 4]: 1.5 h
AUC(0-t) ([1]; 540 mg, AUC(0-24), Regimen C: 540 mg TQS-168 MC oral suspension, geometric mean): 1440 ng·h/mL
AUC(0-inf) [1, 5]: 1600 ng·h/mL
AUC(0-t) ([1]; 540 mg, AUC(0-last), Regimen C: 540 mg TQS-168 MC oral suspension, geometric mean): 1540 ng·h/mL
Cmax [1, 6]: 1290 nM
Cmax [1, 5]: 323 ng/mL
half-life [1, 5]: 10.1 h
Tmax [1, 6]: 2.25 h
suppression of TNFα production vs no treatment (TNF-α; 5 μM): statistically significant suppression
suppression of TNFα production vs no treatment (TNF-α; 20 μM): statistically significant suppression
concentration in brain [2, 7]: 4.2 ng/mL and 10.7 ng/mL and 22.8 ng/mL
concentration in liver [2, 7]: 2.4 ng/mL and 0.4 ng/mL and 0.7 ng/mL
concentration in plasma [2, 7]: 0.5 ng/mL and 0.1 ng/mL and 0.0 ng/mL
concentration in brain [2, 8]: 21.6 ng/mL and 42.0 ng/mL and 35.2 ng/mL
concentration in liver [2, 8]: 268.0 ng/mL and 496.0 ng/mL and 575.0 ng/mL and 431.5 ng/mL
concentration in plasma [2, 8]: 12.6 ng/mL and 18.6 ng/mL and 14.6 ng/mL
concentration in brain [2, 9]: 253.0 ng/mL and 755.0 ng/mL and 530.0 ng/mL and 630.0 ng/mL
concentration in liver [2, 9]: 1060.0 ng/mL and 2725.0 ng/mL and 1940.0 ng/mL and 2175.0 ng/mL
concentration in plasma [2, 9]: 107.0 ng/mL and 47.0 ng/mL and 57.4 ng/mL and 86.0 ng/mL
concentration in brain [2, 10]: 282.0 ng/mL and 150.5 ng/mL and 242.5 ng/mL
concentration in liver [2, 10]: 305.5 ng/mL and 2080.0 ng/mL and 1070.0 ng/mL and 1725.0 ng/mL
concentration in plasma [2, 10]: 110.0 ng/mL and 43.8 ng/mL and 88.6 ng/mL and 131.0 ng/mL
concentration in brain [2, 11]: 399.0 ng/mL and 143.0 ng/mL and 188.0 ng/mL and 10.6 ng/mL
concentration in liver [2, 11]: 60.5 ng/mL and 1520.0 ng/mL and 216.5 ng/mL and 680.0 ng/mL
concentration in plasma [2, 11]: 46.8 ng/mL and 175.0 ng/mL and 3.4 ng/mL and 14.0 ng/mL
concentration in brain [2, 12]: 34.8 ng/mL and 20.9 ng/mL and 5.3 ng/mL and 18.2 ng/mL
concentration in liver [2, 12]: 431.5 ng/mL and 50.5 ng/mL and 37.6 ng/mL and 147.5 ng/mL
concentration in plasma [2, 12]: 6.0 ng/mL and 2.7 ng/mL and 1.8 ng/mL and 10.9 ng/mL
concentration in plasma ([2]; 25 mg/kg p.o., 1440.0 minutes, individual animal): 0.0 ng/mL
concentration in brain [2, 13]: 36.3 ng/mL and 8.5 ng/mL and 10.5 ng/mL and 55.5 ng/mL
concentration in liver [2, 13]: 4.0 ng/mL and 2.6 ng/mL and 0.8 ng/mL and 8.7 ng/mL
concentration in plasma ([2]; 25 mg/kg p.o., 2880.0 minutes, individual animal): 0.0 ng/mL
concentration in brain [2, 14]: 0.0 ng/mL and 3.0 ng/mL and 2.5 ng/mL and 0.7 ng/mL
concentration in liver [2, 14]: 0.0 ng/mL (3×) and 1.0 ng/mL
concentration at 0 min ([2]; male, C57BL6/J, mouse, brain, po, 25 mg/kg, 25 mg/kg p.o., 0.0 minutes, average, read-out: concentration in brain): 12.6 ng/mL
concentration at 15 min ([2]; male, C57BL6/J, mouse, brain, po, 25 mg/kg, 25 mg/kg p.o., 15.0 minutes, average, read-out: concentration in brain): 34.7 ng/mL
concentration at 15 minutes ([2]; male, C57BL6/J, mouse, brain, po, 25 mg/kg, 25 mg/kg p.o., 15.0 minutes, individual animal): 40.2 ng/mL
concentration at 60 min ([2]; male, C57BL6/J, mouse, brain, po, 25 mg/kg, 25 mg/kg p.o., 60.0 minutes, average, read-out: concentration in brain): 542 ng/mL
concentration at 120 min ([2]; male, C57BL6/J, mouse, brain, po, 25 mg/kg, 25 mg/kg p.o., 120.0 minutes, average, read-out: concentration in brain): 236 ng/mL
concentration at 120 minutes ([2]; male, C57BL6/J, mouse, brain, po, 25 mg/kg, 25 mg/kg p.o., 120.0 minutes, individual animal): 270 ng/mL
concentration at 240 min ([2]; male, C57BL6/J, mouse, brain, po, 25 mg/kg, 25 mg/kg p.o., 240.0 minutes, average, read-out: concentration in brain): 185 ng/mL
concentration at 480 min ([2]; male, C57BL6/J, mouse, brain, po, 25 mg/kg, 25 mg/kg p.o., 480.0 minutes, average, read-out: concentration in brain): 19.8 ng/mL
concentration at 1440 min ([2]; male, C57BL6/J, mouse, brain, po, 25 mg/kg, 25 mg/kg p.o., 1440.0 minutes, average, read-out: concentration in brain): 27.7 ng/mL
concentration at 2880 min ([2]; male, C57BL6/J, mouse, brain, po, 25 mg/kg, 25 mg/kg p.o., 2880.0 minutes, average, read-out: concentration in brain): 1.5 ng/mL
concentration at 0 min ([2]; male, C57BL6/J, mouse, liver, po, 25 mg/kg, 25 mg/kg p.o., 0.0 minutes, average, read-out: concentration in liver): 1.2 ng/mL
concentration at 15 min ([2]; male, C57BL6/J, mouse, liver, po, 25 mg/kg, 25 mg/kg p.o., 15.0 minutes, average, read-out: concentration in liver): 443 ng/mL
concentration at 60 min ([2]; male, C57BL6/J, mouse, liver, po, 25 mg/kg, 25 mg/kg p.o., 60.0 minutes, average, read-out: concentration in liver): 1980 ng/mL
concentration at 120 min ([2]; male, C57BL6/J, mouse, liver, po, 25 mg/kg, 25 mg/kg p.o., 120.0 minutes, average, read-out: concentration in liver): 1300 ng/mL
concentration at 240 min ([2]; male, C57BL6/J, mouse, liver, po, 25 mg/kg, 25 mg/kg p.o., 240.0 minutes, average, read-out: concentration in liver): 619 ng/mL
concentration at 480 min ([2]; male, C57BL6/J, mouse, liver, po, 25 mg/kg, 25 mg/kg p.o., 480.0 minutes, average, read-out: concentration in liver): 167 ng/mL
concentration at 1440 min ([2]; male, C57BL6/J, mouse, liver, po, 25 mg/kg, 25 mg/kg p.o., 1440.0 minutes, average, read-out: concentration in liver): 4 ng/mL
concentration at 2880 min ([2]; male, C57BL6/J, mouse, liver, po, 25 mg/kg, 25 mg/kg p.o., 2880.0 minutes, average, read-out: concentration in liver): 0.3 ng/mL
Cmax ([2]; male, C57BL6/J, mouse, plasma, 25 mg/kg single oral dose): 93.4 ng/mL and 370 nM
concentration at 0 min ([2]; male, C57BL6/J, mouse, plasma, po, 25 mg/kg, 25 mg/kg p.o., 0.0 minutes, average, read-out: concentration in plasma): 0.2 ng/mL
concentration at 15 min ([2]; male, C57BL6/J, mouse, plasma, po, 25 mg/kg, 25 mg/kg p.o., 15.0 minutes, average, read-out: concentration in plasma): 16.2 ng/mL
concentration at 15 min ([2]; male, C57BL6/J, mouse, plasma, po, 25 mg/kg, 25 mg/kg p.o., 15.0 minutes, individual animal, read-out: concentration in plasma): 18.8 ng/mL
concentration at 60 min ([2]; male, C57BL6/J, mouse, plasma, po, 25 mg/kg, 25 mg/kg p.o., 60.0 minutes, average, read-out: concentration in plasma): 74.4 ng/mL
concentration at 120 min ([2]; male, C57BL6/J, mouse, plasma, po, 25 mg/kg, 25 mg/kg p.o., 120.0 minutes, average, read-out: concentration in plasma): 93.4 ng/mL
concentration at 240 min ([2]; male, C57BL6/J, mouse, plasma, po, 25 mg/kg, 25 mg/kg p.o., 240.0 minutes, average, read-out: concentration in plasma): 59.8 ng/mL
concentration at 480 min ([2]; male, C57BL6/J, mouse, plasma, po, 25 mg/kg, 25 mg/kg p.o., 480.0 minutes, average, read-out: concentration in plasma): 5.3 ng/mL
concentration at 1440 min ([2]; male, C57BL6/J, mouse, plasma, po, 25 mg/kg, 25 mg/kg p.o., 1440.0 minutes, average, read-out: concentration in plasma): 0 ng/mL
concentration at 1440 min ([2]; male, C57BL6/J, mouse, plasma, po, 25 mg/kg, 25 mg/kg p.o., 1440.0 minutes, individual animal, read-out: concentration in plasma): 0 ng/mL
concentration at 2880 min ([2]; male, C57BL6/J, mouse, plasma, po, 25 mg/kg, 25 mg/kg p.o., 2880.0 minutes, average, read-out: concentration in plasma): 0 ng/mL
concentration at 2880 min ([2]; male, C57BL6/J, mouse, plasma, po, 25 mg/kg, 25 mg/kg p.o., 2880.0 minutes, individual animal, read-out: concentration in plasma): 0 ng/mL
